Consider three compounds from patent US20150031872A1, “METHOD FOR SCREENING ANTICANCER DRUGS, AND ANTICANCER DRUG THAT INDUCES CELL DEATH AND USES SUBSTANCE THAT INCREASES GRANZYME M ACTIVITY AS ACTIVE INGREDIENT” (LSIP, LLC, priority 2012, published 2015).

Data set [1] has as its target T1, granzyme M in HL60 cells (Homo sapiens, UniProt P51124).
T1 construct: endogenous in cells; host or cells: U937, HL60
T1 sequence (P51124 26-257): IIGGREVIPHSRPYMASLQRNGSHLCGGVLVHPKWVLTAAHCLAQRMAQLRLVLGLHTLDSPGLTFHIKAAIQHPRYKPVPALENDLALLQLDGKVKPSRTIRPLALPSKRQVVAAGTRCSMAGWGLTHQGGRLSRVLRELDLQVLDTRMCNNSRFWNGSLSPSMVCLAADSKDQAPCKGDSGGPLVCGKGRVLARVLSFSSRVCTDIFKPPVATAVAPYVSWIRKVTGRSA
Kind of data set: Granzyme M activity in extracted protein group (substrate, OD 405 nm). It is filed as cell-based. The following applies: 5 μM AraC, 0 h, 3, 5 and 7 hours, FIG. 7. The method, then:
(§1) At the same conditions (5 μM AraC) as Test Example 1, U937 cells, HL60 cells and KHYG-1 cells (positive control section) were cultured, cells were recovered from the culture medium immediately after culturing initiation (0 h), after 3 hours, after 5 hours and after 7 hours, and the protein groups were extracted from the cells.
(§2) To a measurement buffer (100 mM HEPES, 50 mM CaCl2, pH 7.4), 30 μg of protein group was introduced, and after adding substrate in an amount for a concentration of 200 μM, was incubated at 37° C. for 1 hour, and the absorbance at OD 405 nm was measured. It should be noted that the substrate was one synthesized by referencing Sami Mahrus, Walter Kisiel, and Charles S. Craik, Granzyme M is a regulatory protease that inactivates proteinase inhibitor 9, an endogenous inhibitor of granzyme B, J. Biol. Chem., 279, pp. 54275-54282, 2004. The vertical axis in FIG. 7 is an activity relative value for granzyme M calculated based on the absorbance.

Data set [2] concerns nucleophosmin (NPM) in Colo201. Briefly: Western blot of nucleophosmin (NPM) fragments. The following applies: after AraC administration, FIG. 3A. Type of data set: cell-based, human. The source says:
(§3) By the same method as FIG. 2C, protein groups extracted from the respective cells of U937, HL60 and Colo201 were molecular weight fractionated by way of electrophoresis of a conventional method, and the behavior of nucleophosmin (NPM), which is a cell survival factor (anti-apoptotic factor), was further investigated by the western blot method of a conventional method. It should be noted that monoclonal anti-GB23 (nucleophosmin/NPM) (catalog number B0556), which is an anti-NPM antibody, was purchased from Sigma-Aldrich (Saint Louis, Mo., USA).

Data set [3] has as its system nucleophosmin (NPM) in HL60. Kind of data set: Western blot of nucleophosmin (NPM) fragments. It is filed as cell-based, human. The following applies: after AraC administration, FIG. 3A.
Description: as §3
On the technique in general: A western blot detects proteins with antibodies after separation by electrophoresis.

A further data set relates to perforin in HL60 cells. Briefly: Western blot, expression of perforin. Type of data set: cell-based, human. The following applies: 5 μM AraC, FIG. 6. How it is done:
(§4) Using U937 cells, Colo201 cells (negative control) and KHYG-1 cells (positive control), which are human NK cells, 5 μM of AraC was added to the culture medium, and culturing was carried out. Immediately after culturing initiation (0 h), after 1 hour, after 3 hours and after 5 hours, cells were recovered from the cell medium, and protein groups were extracted from the cells. The amount of protein group was measured, and a certain amount of protein group was molecular weight fractionated by way of electrophoresis of a conventional method.
(§5) Except for the point of using HL60 cells and KHYG-1 cells (positive control section), the expression of granzyme M and perforin was examined at the same conditions as Test Example 3.

Data set [4] relates to nucleophosmin (NPM) in U937. Kind of data set: Western blot of nucleophosmin (NPM) fragments. Type of data set: cell-based, human.
Description: as §3
NPM fragments were recovered by the immunoprecipitation method, and the N-terminal amino acids at the cleavage site of NPM were analyzed to carry out identification of the protease participating in the cleavage of NPM. It should be noted that “LC” in FIG. 3B is a light chain of the antibody used in immunoprecipitation.

The test system of the next data set is Colo201. Kind of data set: Cell growth / viability, Cell Counting Kit 8 (WST-8). It is filed as cell-based, human. The following applies: AraC 1, 5, 10 and 50 μm, 24 hours, FIG. 2A. The method, then:
(§6) Using U937 cells and HL60 cells, which are human leukemia cells, and Colo201, which are human colon cancer cells (all purchased from cell bank), 3×10^3 of each cell were seeded in 96 well plates, and then cultured with 100 μl of RPMI cell medium (containing 10% fetal bovine serum (FBS), 2 mM L-glutamine, 100 units/ml penicillin, 100 μg/ml streptomycin, 250 ng/ml amphoterin B) per each well. At this time, AraC (cylocide) being used in the treatment of acute myelocytic leukemia by conventional pathology was added to the culture medium at the respective concentrations of 1, 5, 10 and 50 μm, and cultured under the conditions of 37° C. and 5% CO2 for 24 hours. Subsequently, 10 μl of WST-8 solution was placed per 1 well, and cultured at 37° C. for 4 hours.
(§7) The growth of cells was measured using a Cell Counting Kit 8 (Dojindo). This method is a measurement method establishing the dehydrogenase activity in viable cells as an index, and performs measurement of viable cell count based on WST-8 (2-(2-methoxy-4-nitrophenyl)-3-(4-nitrophenyl)-5-(2,4-disulfophenyl)-2H-tetrazolium, monosodium salt), which is a tetrazolium salt, being reduced to form formazan. More specifically, using a spectrophotometer Multiscan JX (Thermo Labsystems, Waltham, Mass.), the absorbance at 450 nm was measured, and the absorbance at 690 nm was used as the reference. The vertical axis in the graph of FIG. 2A represents the extent of cell viability by relative value.

In data set [5] the test system is HL60 cells. The description is as above. It is filed as cell-based, human. The following applies: AraC 1, 5, 10 and 50 μm, 24 hours, FIG. 2A, p<0.01. How it is done:
as §6, §7

Data set [6] deals with U937 cells. The data set is described as above. It is filed as cell-based, human. The following applies: AraC 1, 5, 10 and 50 μm, 24 hours, FIG. 2A, p<0.01. How it is done:
as §6, §7

Data set [7] concerns PARP and caspase-3 in U937 cells. Briefly: Expression of apoptosis associated proteins after AraC. It is filed as cell-based, human. The following applies: 5 μM AraC, 0 h, 3 hours, 6 hours, FIG. 2C. How it is done: Immediately after culturing start (0 h) under the administration of 5 μM of AraC, after 3 hours and after 6 hours, the expression of apoptosis associated proteins of U937 cells was measured.

In a further data set the test system is perforin in U937 cells. Kind of data set: Western blot, expression of perforin. The following applies: 5 μM AraC, FIG. 5. It is filed as cell-based, human.
For data set [8], the system named is granzyme M in HL60 cells. Kind of data set: Western blot, expression of granzyme M. Type of data set: cell-based, human. The following applies: 5 μM AraC, FIG. 6. How it is done: as §4, §5
Data set [9] has as its system granzyme M in U937 cells. Briefly: Western blot, expression of granzyme M. Type of data set: cell-based, human. The following applies: 5 μM AraC, 0 h, 1, 3 and 5 hours, FIG. 4. How it is done:
as §4
By way of western blot of a conventional method, the expression of granzyme M was detected. […] The expression of granzyme M in U937 cells, which are cancer cells, is a novel discovery that had not been known conventionally. […] It should be noted that GZMM Antibody (catalog number: AP6792c) by Abgent was used as the granzyme M antibody.

The target of data set [10] is T2, granzyme M in U937 cells (Homo sapiens, UniProt P51124).
T2 construct: endogenous in cells; host or cells: U937, HL60
T2 sequence (P51124 26-257): T1 sequence (P51124 26-257)
Kind of data set: Granzyme M activity in extracted protein group (substrate, OD 405 nm). Type of data set: cell-based. The following applies: 5 μM AraC, 0 h, 3, 5 and 7 hours, FIG. 7. How it is done: as §1, §2
Next, using protein groups arrived at by administering serine protease inhibitor (50 μM TPCK) to the culture medium, culturing U937 cells under the same conditions for 7 hours, and recovering, the absorbance was measured in the same way as above. The vertical axis in FIG. 3 is the activity relative value for granzyme M calculated based on the absorbance.

In data set [11] the test system is U937 cells. Kind of data set: Viable cell count by tryptan blue method. It is filed as cell-based, human. The following applies: inhibitor alone 0.75 mg/ml, 14 hours. The method, then: […] To 48 well plates, 5×10^5 of each cell (U937 cells and HL60 cells) were seeded, and culturing was initiated with 200 μl of culture medium per well. Fourteen hours after culturing initiation, the number of viable cells was measured by the tryptan blue method (mixing a cell suspension and tryptan blue solution in 1:1, placing in a hemocytometer, and counting the number of cells using an optical microscope). It should be noted that Ac-KVPL-CMK was synthesized based on the tertiary structure of granzyme M (L. Wu et. al., Structural basis for proteolytic specificity of the human apoptosis-inducing granzyme M, J. Immunol., 2009; 183: 421-429).

The subject of data set [12] is HL60 cells. Kind of data set: Viable cell count by tryptan blue method. Type of data set: cell-based, human. The following applies: inhibitor alone 0.75 mg/ml, 14 hours. How it is done:
Ac-KVPL-CMK, which is an inhibitor specific to granzyme M, was added to the culture medium (5 μM AraC) in an amount making a final concentration of 0.75 mg/ml, and then pre-incubated. To 48 well plates, 5×10^5 of each cell (U937 cells and HL60 cells) were seeded, and culturing was initiated with 200 μl of culture medium per well. Fourteen hours after culturing initiation, the number of viable cells was measured by the tryptan blue method (mixing a cell suspension and tryptan blue solution in 1:1, placing in a hemocytometer, and counting the number of cells using an optical microscope). It should be noted that Ac-KVPL-CMK was synthesized based on the tertiary structure of granzyme M (L. Wu et. al., Structural basis for proteolytic specificity of the human apoptosis-inducing granzyme M, J. Immunol., 2009; 183: 421-429).

The target in another data set is T3, granzyme M in Hela cells (Homo sapiens, UniProt P51124).
T3 construct: endogenous in cells; host or cells: Hela
T3 sequence (P51124 26-257): T1 sequence (P51124 26-257)
Kind of data set: Granzyme M activity in extracted protein group (substrate, OD 405 nm). It is filed as cell-based. The following applies: CDDP 50 μM, 24 hours culture, incubation 10 min, 8 hr (P<0.05), 21 hr (P<0.01) vs. control, FIG. 11. The method, then: as §2
Using Hela cells, which are human solid carcinoma cells, the action causing granzyme M activity of CDDP 50 μM conventionally used as a curative drug for solid carcinoma was investigated by culturing Hela cells for 24 hours at the same conditions as Test Example 5. The vertical axis in FIG. 11 is the activity relative value for granzyme M calculated based on the absorbance, and on the horizontal axis are test groups having incubation times of “10 min”, “8 hr” (8 hours) and “21 hr” (21 hours), in which “control” is the substrate without CDDP, and “CDDP” is the substrate and CDDP addition.

Peptide text beside a SMILES is read from it. * marks the point of attachment. CH2Cl = ClC*

Description for perforin in U937 cells: Using U937 cells, Colo201 cells (negative control) and KHYG-1 cells (positive control), which are human NK cells, 5 μM of AraC was added to the culture medium, and culturing was carried out. Immediately after culturing initiation (0 h), after 1 hour, after 3 hours and after 5 hours, cells were recovered from the cell medium, and protein groups were extracted from the cells. The amount of protein group was measured, and a certain amount of protein group was molecular weight fractionated by way of electrophoresis of a conventional method. The expression of perforin was detected by way of western blot of a conventional method. […] It should be noted that Mouse Anti-Human Perforin, Monoclonal Antibody (catalog number: 3465-6-250) by Mabtech was used as the perforin antibody.

With `Nc1ccn([C@@H]2O[C@H](CO)[C@@H](O)[C@@H]2O)c(=O)n1` [AraC], the “activity of granzyme M (relative value)” value on granzyme M in HL60 cells [1] and at granzyme M in U937 cells [10] was “increases along with the elapse of time” throughout. For the same compound, the “fragments of NPM” value in data set [2] is “not detected”; in data set [3] it was “detected along with the elapse of time”; in [4] (U937, after AraC administration, FIG. 3A), “detected along with the elapse of time”. Moreover, the expression of perforin entry in the data set on perforin in HL60 cells was “not recognized”; in the data set on perforin in U937 cells, “not induced”. Further, the “cleavage site of NPM fragment (N-terminal amino acid sequence AAED)” value in data set [4] (NPM fragments recovered by immunoprecipitation after AraC administration, FIG. 3B) is reported as “cleaved by Leu-158 of NPM”. The “cell death (cell viability, relative value)” value is “not induced” with Colo201, “concentration dependently induced” in the data set on HL60 cells [5] and “concentration dependently induced” in the data set with U937 cells [6]. Further, the PARP decomposition entry in data set [7] is recorded as “decomposed along with the elapse of time”. Besides, in data set [7], the caspase-3 decomposition entry is “decomposed along with the elapse of time”. The “expression level of granzyme M” value with granzyme M in HL60 cells [8] is given as “tendency of the expression level being exacerbated depending on the time elapsed”; in the data set with granzyme M in U937 cells [9], “unrelated to the elapse of AraC administration time”.
In the case of `CC(=O)N[C@@H](CCCCN)C(=O)N[C@H](C(=O)N1CCC[C@H]1C(=O)N[C@@H](CC(C)C)C(=O)CCl)C(C)C` [granzyme M-specific inhibitor, Ac-KVPL-CMK] (Ac-KVPL-CH2Cl), the “viable cell count, sole administration vs. control group” value in the data set with U937 cells [11] and in the data set with HL60 cells [12] was “significant difference in viable cell count was not confirmed” in each case.
Consider `[NH2][Pt]([NH2])([Cl])[Cl]` [CDDP, cisplatin], for which the “activity of granzyme M (relative value)” value at granzyme M in Hela cells is “increased with the elapse of time”.
